Activity calls are given as the source filed them.
Experiments:
[1] = cAMP pathway inhibition in counterscreen cell line – TR-FRET cAMP detection, counter-screen for MC4R biased antagonist project, dose response (AID 602305); assay type: functional, cell-based;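 further: U2OS cells stimulated with forskolin near its EC80 as the cAMP inducer; potency is for inhibition of forskolin-stimulated cAMP signaling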
Galanin receptor type 3 = Galanin receptor type 3 (Homo sapiens, UniProt O60755); assay: Fluorescence-based cell-based primary high throughput dose response assay to identify antagonists of the Galanin Receptor 3 (GalR3).; assay type: functional
Galanin receptor type 3, sequence (O60755 whole entry): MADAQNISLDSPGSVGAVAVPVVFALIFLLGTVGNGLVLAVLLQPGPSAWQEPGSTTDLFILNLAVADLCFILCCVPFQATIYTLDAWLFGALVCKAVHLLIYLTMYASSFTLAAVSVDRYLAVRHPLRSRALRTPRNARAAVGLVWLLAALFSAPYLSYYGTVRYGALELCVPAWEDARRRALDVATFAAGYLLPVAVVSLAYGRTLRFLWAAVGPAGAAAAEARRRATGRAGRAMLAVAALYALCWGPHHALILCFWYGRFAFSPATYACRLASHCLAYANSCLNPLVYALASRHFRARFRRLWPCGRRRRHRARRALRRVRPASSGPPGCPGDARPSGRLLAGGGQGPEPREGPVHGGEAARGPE

[2] = loss of viability in HepG2 cells – cell-based, CellTiter-Glo, cherry-picked, cytotoxicity control for Shn3 inhibitor project, dose response (AID 624134); assay type: functional
[3] = reduction of Shn3 3'UTR-driven luciferase in osteoblasts – cell-based, Clone20 osteoblasts, firefly luciferase, cherry-picked, dose response (AID 624132); assay type: functional;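 further: firefly luciferase luminescence from reporter carrying the Shn3 3'UTR in osteoblasts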
[4] = non-specific 3'UTR reporter inhibition in Clone20-Shn3RL – cell-based, Renilla luciferase, cherry-picked, counter-screen for Shn3 inhibitor project, dose response (AID 624133); assay type: functional
Melanocortin receptor 4 = Melanocortin receptor 4 (Homo sapiens, UniProt P32245); assay: inhibitors of MC4R cAMP signaling – cell-based, TR-FRET, biased antagonists, dose response (AID 602298); assay type: functional;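 further: antagonist potency against agonist-stimulated cAMP production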
Melanocortin receptor 4, sequence (P32245 whole entry): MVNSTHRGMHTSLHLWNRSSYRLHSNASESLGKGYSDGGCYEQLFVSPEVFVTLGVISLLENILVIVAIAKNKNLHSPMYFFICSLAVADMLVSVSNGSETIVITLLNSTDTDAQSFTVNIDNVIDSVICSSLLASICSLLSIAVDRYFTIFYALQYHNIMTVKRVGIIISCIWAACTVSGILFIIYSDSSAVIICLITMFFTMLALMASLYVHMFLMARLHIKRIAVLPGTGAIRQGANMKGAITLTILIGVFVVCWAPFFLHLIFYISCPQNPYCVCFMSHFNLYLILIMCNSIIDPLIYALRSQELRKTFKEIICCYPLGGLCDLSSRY

cells = assay type: functional, cell-based; conditions: HEK-CNG
Streptococcus = assay: GAS UMAA2166 growth inhibition – luminescence, BacTiterGlo, counter-screen for streptokinase expression inhibitor project, dose response (AID 1915); assay type: functional, organism-based;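 further: potency for reduction of bacterial viability or growth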
[5] = target: DNA (cytosine-5)-methyltransferase 1 (Homo sapiens, UniProt P26358); assay: inhibition of DNA methylation by DNMT1 – biochemical, fluorescent molecular beacon, confirmation (AID 602386); assay type: functional
DNA (cytosine-5)-methyltransferase 1, sequence (P26358 whole entry): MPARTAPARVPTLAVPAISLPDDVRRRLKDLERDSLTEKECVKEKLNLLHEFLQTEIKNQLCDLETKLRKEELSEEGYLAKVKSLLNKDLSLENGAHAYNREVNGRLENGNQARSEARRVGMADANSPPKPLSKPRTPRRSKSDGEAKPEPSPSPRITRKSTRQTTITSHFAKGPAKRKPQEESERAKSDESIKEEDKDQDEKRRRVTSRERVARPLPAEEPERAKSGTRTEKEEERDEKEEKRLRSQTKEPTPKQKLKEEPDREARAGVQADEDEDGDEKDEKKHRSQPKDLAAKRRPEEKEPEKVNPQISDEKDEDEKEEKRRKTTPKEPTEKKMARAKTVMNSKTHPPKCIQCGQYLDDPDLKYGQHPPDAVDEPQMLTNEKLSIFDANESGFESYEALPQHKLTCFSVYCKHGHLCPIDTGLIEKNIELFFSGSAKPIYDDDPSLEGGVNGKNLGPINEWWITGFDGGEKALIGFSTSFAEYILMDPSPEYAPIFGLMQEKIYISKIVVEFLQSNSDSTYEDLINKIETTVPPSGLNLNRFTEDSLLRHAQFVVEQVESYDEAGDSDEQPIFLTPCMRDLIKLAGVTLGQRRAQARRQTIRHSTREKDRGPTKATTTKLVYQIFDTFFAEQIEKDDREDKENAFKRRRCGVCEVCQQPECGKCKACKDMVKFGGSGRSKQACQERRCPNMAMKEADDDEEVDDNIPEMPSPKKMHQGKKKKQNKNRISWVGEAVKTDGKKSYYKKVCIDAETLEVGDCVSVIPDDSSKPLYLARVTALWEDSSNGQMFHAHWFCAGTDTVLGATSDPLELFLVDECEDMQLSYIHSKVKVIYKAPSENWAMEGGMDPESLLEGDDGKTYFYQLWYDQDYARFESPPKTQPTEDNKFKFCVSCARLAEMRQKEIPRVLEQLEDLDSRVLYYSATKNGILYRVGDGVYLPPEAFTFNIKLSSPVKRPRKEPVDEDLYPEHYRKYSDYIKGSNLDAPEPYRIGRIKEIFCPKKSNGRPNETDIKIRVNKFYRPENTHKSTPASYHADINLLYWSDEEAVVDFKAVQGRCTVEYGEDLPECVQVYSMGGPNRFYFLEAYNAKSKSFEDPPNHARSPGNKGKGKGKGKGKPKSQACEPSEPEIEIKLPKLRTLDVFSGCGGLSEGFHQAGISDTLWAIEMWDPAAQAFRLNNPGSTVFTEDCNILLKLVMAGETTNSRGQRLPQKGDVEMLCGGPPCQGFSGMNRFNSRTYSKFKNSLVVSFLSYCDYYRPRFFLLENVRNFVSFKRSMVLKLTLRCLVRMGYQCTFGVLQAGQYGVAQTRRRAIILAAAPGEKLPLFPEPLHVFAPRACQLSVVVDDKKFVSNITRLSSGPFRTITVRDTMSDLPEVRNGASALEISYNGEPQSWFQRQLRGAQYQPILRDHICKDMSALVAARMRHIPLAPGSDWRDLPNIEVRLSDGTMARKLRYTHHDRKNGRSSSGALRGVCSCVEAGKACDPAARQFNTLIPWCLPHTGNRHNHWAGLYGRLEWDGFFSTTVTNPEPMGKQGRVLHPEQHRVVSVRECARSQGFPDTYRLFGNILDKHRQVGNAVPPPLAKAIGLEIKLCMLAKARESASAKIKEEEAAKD

[6] = target: T1, Small ubiquitin-related modifier 1 (Homo sapiens, UniProt P63165); assay: SUMO1 protein-protein binding blockers, potency – biochemical, FRET, dose response (AID 624383); assay type: functional; conditions: read-out: IC50_Mean
T1 sequence (P63165 whole entry): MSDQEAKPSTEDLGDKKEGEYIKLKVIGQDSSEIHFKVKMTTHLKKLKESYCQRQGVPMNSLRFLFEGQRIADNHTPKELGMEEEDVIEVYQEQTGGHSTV

Streptokinase A = target: T2, Streptokinase A (Streptococcus pyogenes serotype M1, UniProt P10520); assay: viability-normalized secreted streptokinase activity reduction – plasminogen activation absorbance, OD405, dose response (AID 1914); assay type: functional, Streptococcus pyogenes M1 GAS;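 further: secreted streptokinase activity via plasminogen activation per viability signal from cell pellet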
T2 sequence (P10520 whole entry): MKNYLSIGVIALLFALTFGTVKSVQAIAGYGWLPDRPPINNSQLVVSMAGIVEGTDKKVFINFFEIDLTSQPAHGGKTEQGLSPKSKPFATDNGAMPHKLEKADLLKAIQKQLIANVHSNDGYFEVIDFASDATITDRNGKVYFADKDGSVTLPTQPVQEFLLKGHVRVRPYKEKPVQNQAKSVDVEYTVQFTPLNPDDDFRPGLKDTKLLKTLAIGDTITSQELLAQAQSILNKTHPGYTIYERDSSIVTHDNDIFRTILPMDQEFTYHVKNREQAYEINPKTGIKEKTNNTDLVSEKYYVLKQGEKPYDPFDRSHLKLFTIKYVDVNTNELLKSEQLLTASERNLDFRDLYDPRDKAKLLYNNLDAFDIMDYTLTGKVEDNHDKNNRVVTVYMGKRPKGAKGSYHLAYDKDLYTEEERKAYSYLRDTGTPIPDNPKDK

[7] = target: T1, Small ubiquitin-related modifier 1; assay: SUMO1 protein interaction blockers, potency – biochemical, fluorescence polarization, uHTS hits, dose response (AID 624382); assay type: functional; conditions: read-out: IC50_Mean
[8] = target: T3, Probable nicotinate-nucleotide adenylyltransferase (Staphylococcus aureus (strain N315), UniProt P65502); assay type: functional, Staphylococcus aureus subsp. aureus N315; conditions: read-out: IC50_Mean;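 on IC50 Mean: confirmatory dose-response retesting of NadD inhibitor hits first found in an ultra-high-throughput screen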
T3 sequence (P65502 whole entry): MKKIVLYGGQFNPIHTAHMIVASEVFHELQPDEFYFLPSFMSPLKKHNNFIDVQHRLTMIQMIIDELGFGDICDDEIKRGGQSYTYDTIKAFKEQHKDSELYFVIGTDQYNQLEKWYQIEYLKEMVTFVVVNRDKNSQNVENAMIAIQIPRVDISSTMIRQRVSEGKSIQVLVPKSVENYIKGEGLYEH

[9] = test system: Streptococcus sp. 'group A'; assay: Streptococcus pyogenes SK(-)GAS viability under kanamycin – luminescence, BacTiterGlo, confirmation, counter-screen for streptokinase expression inhibitor project, dose response (AID 1900); assay type: functional, organism-based
[10] = target: T3, Probable nicotinate-nucleotide adenylyltransferase; assay type: functional, Staphylococcus aureus subsp. aureus N315
[11] = target: Dual specificity tyrosine-phosphorylation-regulated kinase 1A (Rattus norvegicus, UniProt Q63470); assay type: biochemical, Homo sapiens
INS1 = assay: INS-1E survival protection against cytokine death – cell-based, luminescence, retest, dose response (AID 449756); assay type: functional; conditions: Rattus norvegicus;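 further: cell death triggered by IL-1 beta plus TNF-alpha plus IFN-gamma mixture; protective hits raise ATP signal compared with cytokine alone wells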
[12] = target: Heat shock protein HSP 90-alpha (Homo sapiens, UniProt P07900); assay type: functional, organism-based
[13] = target: T4, Replicative DNA helicase DnaB (Mycobacterium tuberculosis, UniProt P9WMR3); assay: DnaB intein splicing inhibitors, dose response, biochemical, cell-free fluorescence (AID 449749); assay type: functional
T4 sequence (P9WMR3 whole entry): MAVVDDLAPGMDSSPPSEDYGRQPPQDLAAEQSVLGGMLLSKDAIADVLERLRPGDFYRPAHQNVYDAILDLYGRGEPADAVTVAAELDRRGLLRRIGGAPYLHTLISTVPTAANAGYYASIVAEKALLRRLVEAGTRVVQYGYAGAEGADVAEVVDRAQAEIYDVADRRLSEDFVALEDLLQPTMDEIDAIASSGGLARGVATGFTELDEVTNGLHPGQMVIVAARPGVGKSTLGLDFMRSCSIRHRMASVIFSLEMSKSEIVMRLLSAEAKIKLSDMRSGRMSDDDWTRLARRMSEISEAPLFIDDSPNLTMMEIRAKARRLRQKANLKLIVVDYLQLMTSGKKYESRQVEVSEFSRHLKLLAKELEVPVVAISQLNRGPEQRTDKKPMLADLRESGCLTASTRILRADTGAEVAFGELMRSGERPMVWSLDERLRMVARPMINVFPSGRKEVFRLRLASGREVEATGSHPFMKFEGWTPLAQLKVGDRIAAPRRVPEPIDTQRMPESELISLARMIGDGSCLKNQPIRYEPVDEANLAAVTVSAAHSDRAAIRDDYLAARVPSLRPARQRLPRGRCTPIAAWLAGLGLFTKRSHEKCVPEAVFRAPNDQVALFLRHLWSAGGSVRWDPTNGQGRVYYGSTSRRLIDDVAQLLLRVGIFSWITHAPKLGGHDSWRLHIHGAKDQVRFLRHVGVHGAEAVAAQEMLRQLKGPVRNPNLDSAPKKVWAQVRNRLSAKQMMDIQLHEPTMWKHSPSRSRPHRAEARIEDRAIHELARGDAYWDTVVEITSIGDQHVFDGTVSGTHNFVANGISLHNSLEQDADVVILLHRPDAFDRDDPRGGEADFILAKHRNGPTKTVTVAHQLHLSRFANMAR

Protein RecA = target: T5, Protein RecA (Mycobacterium tuberculosis, UniProt P9WHJ3); assay: Fluorescence Cell-Free Homogeneous Dose Retest to Identify Inhibitors of RecA-Intein Splicing Activity. [Related pubchem assays (depositor defined):AID2097, AID2223, AID489010, AID492950]; assay type: functional
T5 sequence (P9WHJ3 whole entry): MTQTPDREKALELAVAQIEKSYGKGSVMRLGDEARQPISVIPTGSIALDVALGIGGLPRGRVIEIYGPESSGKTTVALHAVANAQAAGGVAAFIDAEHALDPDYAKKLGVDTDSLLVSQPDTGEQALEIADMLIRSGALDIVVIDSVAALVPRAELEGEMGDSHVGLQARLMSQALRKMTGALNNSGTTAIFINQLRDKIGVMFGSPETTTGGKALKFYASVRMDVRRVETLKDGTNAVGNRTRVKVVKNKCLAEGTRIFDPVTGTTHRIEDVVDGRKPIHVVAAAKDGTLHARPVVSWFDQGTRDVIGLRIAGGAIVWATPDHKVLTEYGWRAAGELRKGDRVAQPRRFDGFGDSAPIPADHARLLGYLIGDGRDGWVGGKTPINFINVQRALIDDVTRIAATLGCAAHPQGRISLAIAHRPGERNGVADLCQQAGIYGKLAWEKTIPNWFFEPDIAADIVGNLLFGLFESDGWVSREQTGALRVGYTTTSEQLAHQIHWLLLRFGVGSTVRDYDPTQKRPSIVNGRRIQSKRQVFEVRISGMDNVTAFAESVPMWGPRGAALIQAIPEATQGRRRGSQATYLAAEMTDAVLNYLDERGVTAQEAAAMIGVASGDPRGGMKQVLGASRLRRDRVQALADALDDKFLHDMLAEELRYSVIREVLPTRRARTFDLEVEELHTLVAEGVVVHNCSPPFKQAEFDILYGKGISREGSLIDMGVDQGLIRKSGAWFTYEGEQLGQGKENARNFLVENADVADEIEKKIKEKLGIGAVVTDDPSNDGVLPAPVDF

[14] = target: ATP-binding cassette sub-family B member 6 (Homo sapiens, UniProt Q9NP58); assay: concentration-dependent ABCB6 porphyrin transport blockade – K562-ABCB6 cells, flow cytometry, cherry pick 1, dose response (AID 623955); assay type: functional; conditions: read-out: EC50_MICROM
ATP-binding cassette sub-family B member 6, sequence (Q9NP58 whole entry): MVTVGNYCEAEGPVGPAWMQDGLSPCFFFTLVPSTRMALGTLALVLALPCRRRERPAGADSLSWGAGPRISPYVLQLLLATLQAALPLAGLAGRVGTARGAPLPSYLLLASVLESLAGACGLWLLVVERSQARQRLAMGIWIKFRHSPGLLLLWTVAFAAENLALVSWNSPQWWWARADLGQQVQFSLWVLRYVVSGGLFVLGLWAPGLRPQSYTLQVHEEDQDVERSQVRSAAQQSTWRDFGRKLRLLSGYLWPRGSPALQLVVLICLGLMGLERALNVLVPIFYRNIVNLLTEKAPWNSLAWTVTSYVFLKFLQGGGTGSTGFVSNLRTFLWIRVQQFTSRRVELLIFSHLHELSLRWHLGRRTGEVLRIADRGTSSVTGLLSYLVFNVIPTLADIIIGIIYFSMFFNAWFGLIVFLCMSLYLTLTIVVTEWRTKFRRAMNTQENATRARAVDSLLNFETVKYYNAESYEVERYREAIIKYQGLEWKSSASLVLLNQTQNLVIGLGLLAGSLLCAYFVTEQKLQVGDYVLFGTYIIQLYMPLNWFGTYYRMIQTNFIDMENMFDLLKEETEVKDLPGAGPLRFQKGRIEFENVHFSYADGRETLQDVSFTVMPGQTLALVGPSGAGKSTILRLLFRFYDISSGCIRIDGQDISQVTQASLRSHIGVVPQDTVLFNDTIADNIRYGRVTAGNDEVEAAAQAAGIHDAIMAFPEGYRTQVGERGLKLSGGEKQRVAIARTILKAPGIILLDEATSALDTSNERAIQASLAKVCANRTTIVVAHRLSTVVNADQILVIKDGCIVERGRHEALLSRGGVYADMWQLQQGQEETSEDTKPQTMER

[15] = target: T6, Mitochondrial peptide methionine sulfoxide reductase (Bos taurus, UniProt P54149); assay type: functional;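 further: absorbance read-out, biochemical high-throughput dose-response screen for MsrA inhibitors, confirmatory; recombinant bovine MsrA coupled to E. coli TrxB with NADPH and selenocystamine; potency is for inhibitors of MsrA activity on DMSO substrate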
T6 sequence (P54149 whole entry): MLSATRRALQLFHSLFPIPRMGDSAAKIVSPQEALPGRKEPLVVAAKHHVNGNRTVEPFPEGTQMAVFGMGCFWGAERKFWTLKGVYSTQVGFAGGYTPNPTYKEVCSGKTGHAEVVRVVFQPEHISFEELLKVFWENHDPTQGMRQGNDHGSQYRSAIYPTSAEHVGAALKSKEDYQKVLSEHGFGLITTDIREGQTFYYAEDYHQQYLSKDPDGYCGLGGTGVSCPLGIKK

**Q.** Which results are given for `CC(=O)OC[C@]12CC[C@H]3[C@@](C)(CC[C@H]4C(C)(C)CCC[C@]34C)[C@@H]1CC(C1=CC(=O)OC1O)O2` (some centres not stated)?
**A.** IC50 [1]: 55 µM (inactive); IC50 (Galanin receptor type 3): > 1.11 µM (active); AC50 [2]: 8.6 µM (active); AC50 [3]: 634 nM (active); AC50 [4]: 3.12 µM (active); IC50 (Melanocortin receptor 4): 15.2 µM (inactive); EC50 (cells): > 29.9 µM (inactive)

**Q.** Which EC50 (Streptococcus) does the source give for `O=S(=O)(Nc1c(S(=O)(=O)c2ccccc2)c2nc3ccccc3nc2n1C1CCCCC1)c1ccccc1` here?
**A.** 12 µM (active)

**Q.** What about the IC50 [5] of the same compound?
**A.** 5.23 µM (active)

**Q.** What about the IC50 [6] of the same compound?
**A.** 9.65 µM (active)

**Q.** What about the EC50 (Streptokinase A) of the same compound?
**A.** 5.18 µM (active)

**Q.** What about the IC50 [7] of the same compound?
**A.** > 66.6 µM (inactive)

**Q.** And the IC50 [8]?
**A.** 21.7 µM (active)

**Q.** What about the EC50 [9] of the same compound?
**A.** 5.18 µM (active)

**Q.** And the IC50 [10]?
**A.** 5.42 µM (active)

**Q.** And the AC50 [11]?
**A.** 26.7 µM (active)

**Q.** For `Cc1cccc(NC(=O)c2nc(S(=O)(=O)Cc3ccccc3)ncc2Cl)c1`, which AC50 (INS1) is on record?
**A.** 10.3 µM (active)

**Q.** And the AC50 [2]?
**A.** 17.5 µM (active)

**Q.** And the AC50 [3]?
**A.** 2660 nM (active)

**Q.** And the AC50 [12]?
**A.** 2.42 µM (active)

**Q.** And the AC50 [13]?
**A.** 21.9 µM (active)

**Q.** What about the EC50 (Protein RecA) of the same compound?
**A.** 10.6 µM (active)

**Q.** What about the AC50 [4] of the same compound?
**A.** 6.26 µM (active)

**Q.** What about the EC50 [14] of the same compound?
**A.** 21.5 µM (active)

**Q.** Which results are given for `O=C(CSc1c2c(nc3cc(Cl)ccc13)CCCC2)NCCN1CCOCC1`?
**A.** IC50 [1]: > 64.6 µM (inactive); IC50 (Melanocortin receptor 4): > 64.6 µM (inactive)

**Q.** With `Cc1cc(C(=O)N/N=C/C=C/c2ccc([N+](=O)[O-])cc2)[nH]n1` as the compound, how does the IC50 [15] read?
**A.** 155 µM (inactive)

From ChEMBL document CHEMBL1201862, “PubChem BioAssay data set” (2004)
